This is an account of results in paper PMC8767159, “Multiparameter Optimization of Trypanocidal Cruzain Inhibitors With In Vivo Activity and Favorable Pharmacokinetics” (Frontiers in Pharmacology, 2022).

One series has as its target rhodesain (Trypanosoma brucei rhodesiense, UniProt Q95PM0). As to the kind of experiment: Rhodesain fluorescence-based inhibition assay (Z-FR-AMC). It is filed as biochemical. To be noted: Table S3; compound 100 µM. As to the method:
Rhodesain activity was measured using a fluorescence-based assay as previously described ([Fonseca et al., 2015]). The cleavage rates of the fluorogenic substrate Z-Phe-Arg-aminomethyl coumarin (Z-FR-AMC) were monitored at wavelengths of 340 nm for excitation and 440 nm for emission. All assays were performed in triplicate in a 0.1 M sodium acetate buffer, pH 5.5, with 1 mM beta-mercaptoethanol and 0.01% Triton X-100. The final concentration of rhodesain was 3 nM, and the substrate concentration was 2.5 μM. The cleavage of the substrate was followed by continuous reading for 5 min, and enzyme activity in the presence of 100 μM of each potential inhibitor was calculated based on initial velocity rates compared to DMSO controls. All compounds were tested in triplicate in three independent experiments.

The next series concerns T. cruzi (Y strain). As to the kind of experiment: In vivo trypanocidal activity in mice infected with T. cruzi (Y strain). Also on record: species or system Trypanosoma cruzi. To be noted: for % reduction of peak parasitemia: vs vehicle. The protocol:
Thirty-day-old female Swiss mice weighing 20–25 g and procured from the Center for the Development of Experimental Models for Medicine and Biology (CEDEME/UNIFESP) served as the subjects for these experiments. Animals were housed (5–6 per cage) in polypropylene cages and kept under controlled temperature (22–23°C) and humidity on a 12-h light/dark cycle (12 h light, 12 h dark; lights on at 6:30 am). Rodent chow and water were available ad libitum throughout the experiments. The Committee of Ethics in Research of the Universidade Federal de São Paulo approved all the experiments (CEUA n° 5301080816).
Treatment started on day five after infection with T. cruzi. The following parameters were evaluated in these experiments: level of parasitemia after the treatment, suppression of peak parasitemia (day seven after the infection), and reduction of parasitemia on the peak day (day seven after infection). Parasitemia was expressed as the number of T. cruzi trypomastigotes per 5 µl of blood and was calculated using the Brener method ([Brener, 1962]). […] On the seventh day of treatment, when parasitemia reached its peak, one-way ANOVA indicated a treatment effect (F3,16 = 7.47; p = 0.002). […] This dose-response effect is likely associated with the modulation of physiological systems that increase the susceptibility of the animals to infection with T. cruzi at high doses of the compound. […] The results of the in vivo studies indicate a moderate ability of 28 to suppress peak parasitemia at 150 mg/kg.

Series [1] is described as follows: Acute toxicity and open-field test in female Swiss mice. It is filed as in vivo. As to the method: Thirty-day-old female Swiss mice weighing 20–25 g and procured from the Center for the Development of Experimental Models for Medicine and Biology (CEDEME/UNIFESP) served as the subjects for these experiments. […] Rodent chow and water were available ad libitum throughout the experiments.
The compound, solubilized in 10% DMSO aqueous solution, was administered orally in a single dose of 150 and 300 mg/kg of body weight in female Swiss mice. Parameters related to behavior, autonomic functions, neurological activity, and mortality were assessed as toxicity signs. Soon after the administration of the compound, mice were placed in a circular open-field arena (40 cm diameter) with 50-cm-high walls to assess motor deficits. […] After this period, toxicity signs were assessed once a day for two consecutive weeks. The reference drug BZ at 150 mg/kg and vehicle (10% DMSO) were administered as controls.

Where [2] appears, read: 150 mg/kg, gavage, five daily doses from day 5 after infection, day 7, female Swiss mice.
[3] abbreviates: single oral dose 150 and 300 mg/kg, 2 weeks of observation.
Where [4] appears, read: 300 mg/kg, gavage, five daily doses, day 7, female Swiss mice.

Chain of rhodesain (Q95PM0 entry or part of it): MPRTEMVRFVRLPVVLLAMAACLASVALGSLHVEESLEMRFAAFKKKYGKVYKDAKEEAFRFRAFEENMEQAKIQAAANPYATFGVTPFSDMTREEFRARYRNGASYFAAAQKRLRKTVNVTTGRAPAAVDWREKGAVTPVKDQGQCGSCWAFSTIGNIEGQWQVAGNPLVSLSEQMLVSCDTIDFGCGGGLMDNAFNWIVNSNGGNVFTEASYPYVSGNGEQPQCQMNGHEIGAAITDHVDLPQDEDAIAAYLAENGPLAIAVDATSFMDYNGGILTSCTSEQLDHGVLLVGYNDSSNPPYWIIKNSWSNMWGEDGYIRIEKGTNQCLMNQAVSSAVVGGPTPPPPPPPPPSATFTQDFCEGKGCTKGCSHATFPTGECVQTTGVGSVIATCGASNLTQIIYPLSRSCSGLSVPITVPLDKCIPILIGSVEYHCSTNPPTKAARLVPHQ

Broadly, the inhibition is the drop in the measured response relative to a control, in per cent. Turning to `O=C(COc1ccc2cc(O)ccc2c1)NCCc1nc2ccccc2[nH]1` [Compound 10], the inhibition at 100 µM against rhodesain worked out at 60%. Take `Nc1cccc(OCC(=O)NCCc2nc3ccccc3[nH]2)c1` [Compound 9]: 100 µM produced 40% inhibition at rhodesain. At rhodesain, `CC(=O)Nc1cccc(OCC(=O)NCCc2nc3ccccc3[nH]2)c1` [Compound 3] showed an inhibition at 100 µM of 41%.

As to `O=C(Cn1ccnc1[N+](=O)[O-])NCc1ccccc1` [BZ, benznidazole, reference compound], the “% reduction of peak parasitemia” value in the series with T. cruzi (Y strain) (setting [2]) was found to be 100%. In the case of `NC(=O)Cn1c(CCNC(=O)COc2ccccc2)nc2ccccc21` [Compound 28], in series [1] (oral 150 and 300 mg/kg), the “Locomotor deficits (open-field test)” value is reported as “did not cause locomotor deficits”. Also, in series [1] (setting [3]), the Mortality entry is “no mortality” and the “Toxicity signs (behavior, autonomic functions, neurological activity)” value is recorded as “No toxicity signs”. In addition, in the series with T. cruzi (Y strain) (75 mg/kg and 37.5 mg/kg, Supplementary Figure S10), the “reduction in parasitemia levels at lower doses” value is “no reduction”. Moreover, the “% reduction of peak parasitemia” value with T. cruzi (Y strain) (setting [2]) is 36.9%. In addition, in the series on T. cruzi (Y strain) (setting [4]), the “increase in the peak parasitemia compared with the vehicle” value worked out at 13% and the “% reduction of peak parasitemia” value was -13%.

Compound `O=C(COc1ccc2ccc(O)cc2c1)NCCc1nc2ccccc2[nH]1` [Compound 11] registered an inhibition at 100 µM against rhodesain of 67%. As to `COc1ccc2cc(OCC(=O)NCCc3nc4ccccc4[nH]3)ccc2c1` [Compound 12], at rhodesain, the inhibition at 100 µM stood at 56%.
